These results are taken from ChEMBL document CHEMBL5154845, “Dual-acting antitumor agents targeting the A2A adenosine receptor and histone deacetylases: Design and synthesis of 4-(furan-2-yl)-1H-pyrazolo[3,4-d]pyrimidin-6-amine derivatives” (Eur J Med Chem, 2022).

Calls of active or inactive are those of the source. The rule behind the calls is not given here.

The target in assay [1] is T1, Protein deacetylase HDAC6 (Homo sapiens, UniProt Q9UBN7).
T1 sequence (Q9UBN7 whole entry): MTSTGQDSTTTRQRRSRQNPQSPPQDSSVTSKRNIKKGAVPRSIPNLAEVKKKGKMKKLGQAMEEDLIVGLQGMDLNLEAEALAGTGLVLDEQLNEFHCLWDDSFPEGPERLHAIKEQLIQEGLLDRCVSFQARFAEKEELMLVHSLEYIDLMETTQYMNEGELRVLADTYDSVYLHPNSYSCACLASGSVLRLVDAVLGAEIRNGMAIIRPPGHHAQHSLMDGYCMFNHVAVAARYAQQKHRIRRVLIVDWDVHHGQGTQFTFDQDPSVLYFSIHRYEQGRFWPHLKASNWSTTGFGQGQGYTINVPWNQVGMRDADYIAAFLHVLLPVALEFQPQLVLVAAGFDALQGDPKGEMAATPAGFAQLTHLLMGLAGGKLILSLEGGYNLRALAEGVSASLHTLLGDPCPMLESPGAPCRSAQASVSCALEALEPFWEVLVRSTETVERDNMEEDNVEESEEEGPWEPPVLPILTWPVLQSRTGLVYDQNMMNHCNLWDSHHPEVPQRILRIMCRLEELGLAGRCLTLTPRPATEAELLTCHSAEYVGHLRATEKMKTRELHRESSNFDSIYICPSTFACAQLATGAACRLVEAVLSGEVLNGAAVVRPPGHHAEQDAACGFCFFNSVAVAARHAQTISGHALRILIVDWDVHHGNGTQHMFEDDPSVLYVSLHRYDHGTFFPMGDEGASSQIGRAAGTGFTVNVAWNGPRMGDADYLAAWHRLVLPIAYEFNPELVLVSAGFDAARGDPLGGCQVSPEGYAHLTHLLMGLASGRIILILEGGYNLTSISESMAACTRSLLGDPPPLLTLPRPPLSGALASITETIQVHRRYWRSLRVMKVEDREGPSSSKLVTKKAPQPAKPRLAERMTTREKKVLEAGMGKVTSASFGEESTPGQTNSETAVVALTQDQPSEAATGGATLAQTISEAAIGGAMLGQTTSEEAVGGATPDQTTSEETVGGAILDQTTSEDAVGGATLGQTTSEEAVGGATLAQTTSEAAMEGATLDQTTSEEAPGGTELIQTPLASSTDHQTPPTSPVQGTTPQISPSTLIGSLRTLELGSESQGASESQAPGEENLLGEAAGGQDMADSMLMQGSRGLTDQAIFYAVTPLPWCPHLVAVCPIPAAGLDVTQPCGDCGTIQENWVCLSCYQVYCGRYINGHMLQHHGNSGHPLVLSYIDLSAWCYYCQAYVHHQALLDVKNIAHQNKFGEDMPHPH
Put plainly: Inhibition of HDAC6 (unknown origin) using trypsin and LGK(Ac)-AMC as substrates incubated for 1 hr and measured by fluorescence assay.

Assay [2] has as its target T2, Histone deacetylase 8 (Homo sapiens, UniProt Q9BY41).
T2 sequence (Q9BY41 whole entry): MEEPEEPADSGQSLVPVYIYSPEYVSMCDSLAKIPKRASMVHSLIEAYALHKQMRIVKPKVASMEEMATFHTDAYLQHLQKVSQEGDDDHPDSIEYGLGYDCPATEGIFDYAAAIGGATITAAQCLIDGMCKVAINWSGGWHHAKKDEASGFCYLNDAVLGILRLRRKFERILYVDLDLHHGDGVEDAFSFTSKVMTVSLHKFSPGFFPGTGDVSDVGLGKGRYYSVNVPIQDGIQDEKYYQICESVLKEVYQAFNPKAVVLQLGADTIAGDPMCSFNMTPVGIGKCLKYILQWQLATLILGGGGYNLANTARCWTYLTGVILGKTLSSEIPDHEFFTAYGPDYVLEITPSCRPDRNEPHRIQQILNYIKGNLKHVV
Put plainly: Inhibition of HDAC8 (unknown origin) using trypsin and LGK(Ac)-AMC as substrates incubated for 1 hr and measured by fluorescence assay.

Assay [3] deals with T3, Adenosine receptor A2b (Homo sapiens, UniProt P29275).
T3 sequence (P29275 whole entry): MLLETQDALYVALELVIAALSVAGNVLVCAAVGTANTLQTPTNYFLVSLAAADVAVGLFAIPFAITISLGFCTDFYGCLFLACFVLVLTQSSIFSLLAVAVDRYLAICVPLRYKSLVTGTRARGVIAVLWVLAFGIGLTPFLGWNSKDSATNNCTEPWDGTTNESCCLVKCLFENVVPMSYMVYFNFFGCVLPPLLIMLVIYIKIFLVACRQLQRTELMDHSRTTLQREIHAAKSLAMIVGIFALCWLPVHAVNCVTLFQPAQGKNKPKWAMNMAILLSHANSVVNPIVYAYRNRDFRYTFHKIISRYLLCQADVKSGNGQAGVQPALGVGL
Put plainly: Displacement of [3H]DPCPX from human A2BAR incubated for 60 mins by scintillation counter analysis.

In assay [4] the test system is MC38. Put plainly: Inhibition of HDAC in mouse MC38 cells assessed as increase in H4 acetylation at 0.1 to 10 uM measured by western blot analysis. In kind it is cell-based. The note with it: dose 0.1-10 µM.
Assay [5] has as its target Histone deacetylase 1 (Homo sapiens, UniProt Q13547). Put plainly: Inhibition of HDAC1 (unknown origin) using trypsin and LGK(Ac)-AMC as substrates incubated for 1 hr and measured by fluorescence assay.
For assay [6], the target named is T4, Adenosine receptor A3 (Homo sapiens, UniProt P0DMS8).
T4 sequence (P0DMS8 whole entry): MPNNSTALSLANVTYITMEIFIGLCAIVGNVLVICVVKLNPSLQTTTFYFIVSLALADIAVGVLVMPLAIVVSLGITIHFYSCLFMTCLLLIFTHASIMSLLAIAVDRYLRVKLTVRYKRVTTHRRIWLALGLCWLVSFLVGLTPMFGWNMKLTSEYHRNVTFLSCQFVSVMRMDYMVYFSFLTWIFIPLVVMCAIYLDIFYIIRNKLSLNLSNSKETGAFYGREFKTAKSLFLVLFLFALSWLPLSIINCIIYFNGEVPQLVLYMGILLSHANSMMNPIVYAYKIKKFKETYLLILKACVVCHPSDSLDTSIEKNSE
In words: Displacement of [3H]HEMADO from human A3AR incubated for 60 mins by scintillation counter analysis.

For assay [7], the system named is CT26. Put plainly: Antiproliferative activity against mouse CT26 cells after 72 hrs by CCK-8 assay. In kind it is functional.
For assay [8], the target named is T5, Adenosine receptor A1 (Homo sapiens, UniProt P30542).
T5 sequence (P30542 whole entry): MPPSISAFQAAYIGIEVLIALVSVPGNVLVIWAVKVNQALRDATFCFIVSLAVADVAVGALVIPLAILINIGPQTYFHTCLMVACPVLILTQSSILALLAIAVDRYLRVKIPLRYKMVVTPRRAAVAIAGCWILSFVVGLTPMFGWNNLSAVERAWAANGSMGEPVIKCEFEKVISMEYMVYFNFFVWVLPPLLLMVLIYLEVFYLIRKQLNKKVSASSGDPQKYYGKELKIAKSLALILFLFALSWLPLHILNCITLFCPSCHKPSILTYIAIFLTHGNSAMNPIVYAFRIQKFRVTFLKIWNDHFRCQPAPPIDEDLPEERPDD
In words: Displacement of [3H]DPCPX from human A1AR incubated for 60 mins by scintillation counter analysis.

In assay [9] the test system is MC-38. Put plainly: Antiproliferative activity against mouse MC38 cells after 72 hrs by CCK-8 assay. In kind it is functional.
The test system of assay [10] is MC38. Put plainly: Inhibition of HDAC in mouse MC38 cells assessed as increase in H3 acetylation at 0.1 to 10 uM measured by western blot analysis. The note with it: dose 0.1-10 µM. It counts as cell-based.
The target of assay [11] is Histone deacetylase 3 (Homo sapiens, UniProt O15379). Put plainly: Inhibition of HDAC3 (unknown origin) using trypsin and LGK(Ac)-AMC as substrates incubated for 1 hr and measured by fluorescence assay.
Sequence of Histone deacetylase 3 (O15379 whole entry): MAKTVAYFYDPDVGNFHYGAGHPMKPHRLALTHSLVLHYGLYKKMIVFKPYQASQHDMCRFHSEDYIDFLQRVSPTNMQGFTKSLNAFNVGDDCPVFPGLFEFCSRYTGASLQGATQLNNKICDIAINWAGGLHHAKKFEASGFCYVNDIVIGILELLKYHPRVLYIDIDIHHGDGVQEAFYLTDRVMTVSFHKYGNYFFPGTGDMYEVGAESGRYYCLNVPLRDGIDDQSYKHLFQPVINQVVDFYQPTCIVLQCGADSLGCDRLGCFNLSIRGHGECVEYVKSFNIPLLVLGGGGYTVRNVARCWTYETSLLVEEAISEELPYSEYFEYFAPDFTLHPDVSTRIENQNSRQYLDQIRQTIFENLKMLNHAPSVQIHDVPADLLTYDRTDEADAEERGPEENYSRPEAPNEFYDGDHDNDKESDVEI
Assay [12] has as its target Histone deacetylase 2 (Homo sapiens, UniProt Q92769). Put plainly: Inhibition of HDAC2 (unknown origin) using trypsin and LGK(Ac)-AMC as substrates incubated for 1 hr and measured by fluorescence assay.
Assay [13] concerns the target Adenosine receptor A2a (Homo sapiens, UniProt P29274). Put plainly: Displacement of [3H][…] from human A2AAR incubated for 60 mins by scintillation counter analysis.

Sequence of Histone deacetylase 1 (Q13547 whole entry): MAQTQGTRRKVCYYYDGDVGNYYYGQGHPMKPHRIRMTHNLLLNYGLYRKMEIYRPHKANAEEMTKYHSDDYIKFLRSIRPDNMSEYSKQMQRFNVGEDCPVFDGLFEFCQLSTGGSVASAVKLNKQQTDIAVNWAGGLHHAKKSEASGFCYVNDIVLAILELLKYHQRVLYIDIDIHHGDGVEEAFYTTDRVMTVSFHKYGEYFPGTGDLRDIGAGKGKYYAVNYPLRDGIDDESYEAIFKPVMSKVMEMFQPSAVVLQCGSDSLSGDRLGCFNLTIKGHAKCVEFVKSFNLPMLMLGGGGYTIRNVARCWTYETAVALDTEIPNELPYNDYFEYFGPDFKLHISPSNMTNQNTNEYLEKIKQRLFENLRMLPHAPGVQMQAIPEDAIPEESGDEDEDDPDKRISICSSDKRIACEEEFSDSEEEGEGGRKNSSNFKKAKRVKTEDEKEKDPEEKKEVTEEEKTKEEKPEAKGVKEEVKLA
Sequence of Histone deacetylase 2 (Q92769 whole entry): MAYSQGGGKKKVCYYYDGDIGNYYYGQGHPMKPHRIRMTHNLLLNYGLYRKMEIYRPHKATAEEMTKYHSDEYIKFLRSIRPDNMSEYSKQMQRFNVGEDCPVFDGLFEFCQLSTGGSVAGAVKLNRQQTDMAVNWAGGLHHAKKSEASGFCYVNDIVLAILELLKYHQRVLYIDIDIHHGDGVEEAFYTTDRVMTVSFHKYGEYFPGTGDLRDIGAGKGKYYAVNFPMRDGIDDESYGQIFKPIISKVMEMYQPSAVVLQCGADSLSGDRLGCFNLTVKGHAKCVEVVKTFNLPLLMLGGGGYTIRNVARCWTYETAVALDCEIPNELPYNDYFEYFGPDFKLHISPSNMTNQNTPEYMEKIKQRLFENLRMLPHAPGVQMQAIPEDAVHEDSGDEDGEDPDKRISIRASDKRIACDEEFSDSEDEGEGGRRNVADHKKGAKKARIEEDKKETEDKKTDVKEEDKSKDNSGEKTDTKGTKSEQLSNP
Sequence of Adenosine receptor A2a (P29274 whole entry): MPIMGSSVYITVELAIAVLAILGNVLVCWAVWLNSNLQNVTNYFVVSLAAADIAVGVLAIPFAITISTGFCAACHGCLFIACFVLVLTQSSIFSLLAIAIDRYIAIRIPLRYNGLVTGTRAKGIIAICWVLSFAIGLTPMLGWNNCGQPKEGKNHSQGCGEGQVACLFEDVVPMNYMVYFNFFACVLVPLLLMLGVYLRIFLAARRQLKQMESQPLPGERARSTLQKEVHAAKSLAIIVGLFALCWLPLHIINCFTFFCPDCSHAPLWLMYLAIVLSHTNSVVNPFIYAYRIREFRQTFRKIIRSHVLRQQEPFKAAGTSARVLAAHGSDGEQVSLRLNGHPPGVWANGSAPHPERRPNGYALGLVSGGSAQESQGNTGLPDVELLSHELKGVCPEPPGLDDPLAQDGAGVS

In the case of `Nc1nc(-c2ccco2)c2cnn(Cc3cccc(OCCCCCCC(=O)NO)c3)c2n1`, the 50% inhibitory concentration (IC50) in assay [1] came to 2.1 nM; in assay [2] it was 1410 nM; in [5], 18.5 nM; in assay [11], 13.6 nM; in assay [12] it was 16 nM. The Ki is 513 nM in assay [3], more than 10000 nM in assay [6], 106 nM in assay [8] and 10.3 nM in [13]. The inhibition entry in assay [4] and in assay [10] was “Active” in each case. The concentration for 50% growth inhibition (GI50) turned out to be 12600 nM in assay [7] and 12200 nM in assay [9].
